{"source": "patent EP4796171A2", "about": "(Zealand Pharma A/S, priority 2017, dated 2018)", "key": {"[1]": {"experiment": "Phase 2 clinical trial, PK profile of ZP1848 and metabolites in SBS patients", "assay_type": "in vivo, human", "conditions": "for Conc.: plasma", "experimental": "A phase 2 clinical trial was conducted to i.a. determine the PK profile of ZP1848 and metabolites in human SBS patients.\nThe study was designed as a randomized, cross-over and double-blinded with three different doses of ZP1848 (10 mg, 1 mg, 0.1 mg) in 16 SBS patients.\nThe 18 SBS patients (16 patients completed the study) were randomized evenly and in a double-blinded fashion to each of the six cross-over dose level combinations: 10 mg/1 mg, 10 mg/0.1 mg, 1 mg/10 mg, 1 mg/0.1 mg, 0.1 mg/10 mg, 0.1 mg/1 mg of ZP1848. The patients were injected once daily (QD) subcutaneously with the above doses of ZP1848.\nBlood samples for PK analysis were collected on several study visits throughout the study period: the study comprised a 1st baseline balance study (4 days), a 1st treatment period (21 days) including a 1st treatment balance study (last 4 days of 1st treatment period), followed by a wash-out period (at least 4 weeks); and a 2nd baseline balance study (4 days), a 2nd treatment period (21 days) including a 2nd treatment balance study (last 4 days of 2nd treatment period) and a follow-up period (at least 4 weeks).\nPK sampling was performed at visit 11 (1st treatment, balance study) and visit 17 (second day of 2nd baseline study - after a wash out period), and again at visit 25 (2nd treatment balance study) and at visit 29 (last day of follow-up period).\nAt day visit 11 and visit 25 a full PK profile in steady state was investigated. PK samples were taken prior to injection of ZP1848, and at the following time points (+/- 10 minutes) after trial product administration: 1h, 2h, 4h, 6h, 8h, 10h, 12h and 24h. Each PK sample contained 2 mL of blood, resulting in a total of […] blood drawn for PK purposes. The plasma sample was immediately stored at -80°C after sampling.\nPlasma samples were analyzed after immunoaffinity extraction followed by liquid chromatography mass spectrometry (LC-MS/MS). For each patient plasma concentrations were used for calculation of the pharmacokinetic parameters using the non-compartmental approach in Excel. Plasma terminal elimination half-life (T½) was determined as In(2)/ke where ke is the magnitude of the slope of the log linear regression of the log concentration versus time profile during the terminal phase."}, "[2]": {"experiment": "Phase 1 trial, PK profile of glepaglutide after SC injections in healthy subjects", "assay_type": "in vivo, human", "conditions": "individual subjects; for Half-life of ZP2469 in the interval from 72 to 168 hours post dose: final data; for Half-life ZP2469: preliminary data", "experimental": "A Phase 1 clinical trial to characterize the pharmacokinetic (PK) profiles of glepaglutide (ZP1848) and its primary active metabolites following once-weekly and once daily subcutaneous (SC) injections and after a single intravenous (IV) infusion in healthy subjects was conducted. This included evaluating the pharmacodynamic effects on plasma citrulline levels following SC dosing in healthy subjects. The trial confirmed the feasibility of dosage regimes in which GLP-2 analogues are administered to patients in weekly dosage regimes and compare weekly dosage regimes with daily dosing.\nThe trial design was a single-center, open-label, partially randomized, 3-part, parallel group trial to characterize the PK profile of glepaglutide administered by SC injection once daily for 7 days (Part 1), SC injection once weekly for 6 weeks (Part 2), and as a single IV infusion (Part 3) in healthy subjects.\nGlepaglutide was supplied as an aqueous solution at concentrations of 2 and 10 mg/mL. • Group A: 1 mg glepaglutide once daily, given as single SC injections on Days 1 to 7. • Group B: 5 mg glepaglutide once daily, given as single SC injections on Days 1 to 7. • Group C: 5 mg glepaglutide once weekly, given as single SC injections on Days 1, 8, 15, 22, 29, and 36. • Group D: 10 mg glepaglutide once weekly, given as single SC injections on Days 1, 8, 15, 22, 29, and 36. • Group E: 1 mg glepaglutide, given as an IV infusion at a rate of 4 mg/h for 15 minutes on Day 1.\nBlood samples were collected for the analysis of plasma concentrations of glepaglutide and its primary active metabolites, ZP2469 (ZP18481-34) and ZP2711 (ZP18481-35); samples were assayed using validated analytical methods. The following PK parameter estimates were calculated using standard non-compartmental methods: terminal elimination half-life (t1/2), total body clearance of drug after IV administration (CL; IV dose, parent drug only), apparent total clearance (CL/F; SC doses, parent drug only), volume of distribution at steady state (Vss; IV dose, parent drug only), apparent volume of distribution at steady state (Vss/F; SC doses, parent drug only), volume of distribution (Vz; IV dose, parent drug only), apparent volume of distribution (Vz/F; SC doses, parent drug only), maximum observed plasma concentration (Cmax), area under the plasma concentration-time curve (AUC) over a dosing interval (AUCT), AUC from time zero to infinity (AUCinf), AUC from time zero to the time of the last measurable concentration (AUClast), and time of the maximum observed plasma concentration (tmax). Metabolite exposure (based on Cmax, AUCT, and AUCinf) were determined for each group as a ratio of the 2 primary active metabolites, ZP2469 (ZP18481-34) and ZP2711 (ZP18481-35), relative to the glepaglutide parent drug.\nThe PK parameters estimates for glepaglutide, ZP2469 (ZP18481-34), and ZP2711 (ZP18481-35) were listed and summarized using standard descriptive statistics. The primary PK parameters are t1/2 for glepaglutide, ZP2469 (ZP18481-34), and ZP2711 (ZP18481-35); and CL (IV dose), CL/F (SC doses), Vss (IV dose), Vss/F (SC dose), Vz (IV dose), and Vz/F (SC doses) for glepaglutide. The half-life is calculated as LN(2)/ke where ÷ke is estimate from the slope of the terminal part of the LN(concentration) versus time curve, with repeats regressions of LN(concentration) values using the last three points with non-zero concentrations, then the last four points, last five points, etc. Points with a concentration value of zero are not included. Points prior to Cmax are not used. […] 2) ke must be calculated from at least three data points. 3) The estimated slope must be negative, so that its negative ke is positive. The results of the calculations carried out with preliminary data are shown in Table 4, while the results of the calculations with the complete final data set are shonw in Table 5. […]"}}, "note": "Where “and” joins values, the source holds several entries; their conditions need not be identical. Identical values can stand only once."}
{"substance": "H-HGEGTFSSELATILDALAARDFIAWLIATKITDK-OH [ZP2469]", "values": [{"measurement": "plasma level", "setting": "[1]; in words, relative to ZP1848 after administration of ZP1848", "result": "multiple times higher than that of ZP1848"}, {"measurement": "Conc.", "setting": "[1]; Day 0 (visit 11 or 25, treatment balance study), ZP1848 SC once daily, individual subjects", "result": "2.22 nM and 0.556 nM and 3.64 nM and 4.75 nM and 4.66 nM and 4.49 nM and 1.04 nM and 14.7 nM and 6.77 nM and 4.34 nM and 4.94 nM"}, {"measurement": "Conc.", "setting": "[1]; Day 28-56 (visit 17 or 29, after wash-out/follow-up), individual subjects", "result": "0.394 nM and 0.0528 nM and 0.0564 nM and 0.288 nM and 0.236 nM and 0.195 nM and 0.133 nM and 0.209 nM and 0.46 nM and 0.116 nM and 0.112 nM"}, {"measurement": "Half-life", "setting": "[1]; terminal, from Day 0 and wash-out/follow-up concentrations, individual subjects", "result": "5.2 days and 7.9 days and 8.7 days (2×) and 11 days (2×) and 7.2 days (2×) and 12 days and 9.5 days and 9.6 days"}, {"measurement": "Half-life of ZP2469 in the interval from 72 to 168 hours post dose", "setting": "[2]; Group A, 1 mg once daily, after 7 doses", "result": "75 h and 87 h and 80 h and 54 h and 57 h"}, {"measurement": "Half-life of ZP2469 in the interval from 72 to 168 hours post dose", "setting": "[2]; Group B, 5 mg once daily, after 7 doses", "result": "168 hr and 77 hr and 101 hr (2×) and 53 hr and 34 hr and 46 hr and 100 hr and 40 hr and 84 hr and 50 hr and 42 hr"}, {"measurement": "Half-life of ZP2469 in the interval from 72 to 168 hours post dose", "setting": "[2]; Group C, 5 mg once weekly, after 1 dose", "result": "329 hr and 41 hr and 38 hr and 48 hr (2×) and 59 hr and 61 hr and 217 hr and 45 hr and 39 hr and 91 hr and 75 hr"}, {"measurement": "Half-life of ZP2469 in the interval from 72 to 168 hours post dose", "setting": "[2]; Group C, 5 mg once weekly, after 6 doses", "result": "26 h and 35 h and 59 h and 75 h and 57 h and 43 h and 52 h and 107 h and 33 h and 68 h and 47 h and 65 h and 452 h"}, {"measurement": "Half-life of ZP2469 in the interval from 72 to 168 hours post dose", "setting": "[2]; Group D, 10 mg once weekly, after 1 dose", "result": "66 hr and 54 hr and 120 hr and 36 hr and 46 hr and 35 hr and 60 hr and 26 hr and 158 hr and 53 hr and 43 hr (2×) and 33 hr and 45 hr and 38 hr"}, {"measurement": "Half-life of ZP2469 in the interval from 72 to 168 hours post dose", "setting": "[2]; Group D, 10 mg once weekly, after 6 doses", "result": "60 hr (2×) and 55 hr and 74 hr and 58 hr and 70 hr and 59 hr and 30 hr and 102 hr and 53 hr and 42 hr and 48 hr and 56 hr and 17 hr"}, {"measurement": "Half-life ZP2469", "setting": "[2]; Group A, 1 mg glepaglutide SC once daily, after 7 doses", "result": "20 h and 95 h and 76 h and 36 h and 33 h and 87 h"}, {"measurement": "Half-life ZP2469", "setting": "[2]; Group B, 5 mg glepaglutide SC once daily, after 7 doses", "result": "75 h and 108 h and 209 h and 59 h and 139 h and 94 h"}, {"measurement": "Half-life ZP2469", "setting": "[2]; Group C, 5 mg glepaglutide SC once weekly, after 1 dose", "result": "38 hr (2×) and 100 hr and 17 hr and 48 hr and 20 hr"}, {"measurement": "Half-life ZP2469", "setting": "[2]; Group C, 5 mg glepaglutide SC once weekly, after 6 doses", "result": "11 h and 17 h and 16 h and 32 h and 40 h and 22 h"}, {"measurement": "Half-life ZP2469", "setting": "[2]; Group D, 10 mg glepaglutide SC once weekly, after 1 dose", "result": "52 h and 38 h and 43 h and 34 h"}, {"measurement": "Half-life ZP2469", "setting": "[2]; Group D, 10 mg glepaglutide SC once weekly, after 6 doses", "result": "60 h and 55 h and 74 h and 34 h and 58 h"}]}
